Results taken from patent US11814376B2, “Hepatitis b core protein modulators” (Assembly Biosciences, Inc., priority 2015, dated 2023).

Tests used:
[1] = tested on: HBV viral load in AD38 cells; test: Viral load production in AD38 cells, quantitative PCR of the core sequence in supernatant; format: cell-based; settings: 10 μM compound, 6 days at 37° C., supernatant qPCR, relative to DMSO control; for activity at 10 µM: Hepatitis B virus, 144 h, read-out: AD38 Viral Load (%) (VL with cmpd/VL in DMSO control) at 10 μM
Experimental: (§1) Example 2: Assay Measuring Activity of Compounds on Viral Production in and on Viability of AD38 Cells
(§2) AD38 cells were then re-suspended with 10 mL of Treatment Medium and counted. Wells of a collagen coated 96-well NUNC microtiter plate were seeded at 50,000/well in 180 μL of Treatment Medium, and 20 μL of in treatment media with either 10% DMSO (Control) or a 10× solution of compound in 10% DMSO was added. Plates were incubated for 6 days at 37° C.
Viral load production was assayed by quantitative PCR of the core sequence. […] The PCR mixture was incubated at 45° C. for 5 minutes, then 95° C. for 10 min, followed by 40 cycles of 10 seconds at 95° C. and 20 seconds at 60° C. Viral load was quantitated against known standards by using ViiA™ 7 Software. Viral load in the supernatant from wells with treated cells were compared against viral load in supernatant from DMSO control wells (>3 per plate).

AD38 cells = test: Viability of AD38 cells (Promega CellTiter-Glo); format: cell-based; settings: 10 μM compound, 6 days, CellTiter-Glo luminescence normalized to DMSO control (100%)
Experimental: as §1, §2
At the end of compound treatment period cell viability was assessed using a Promega CellTiter-Glo protocol. All supernatant was removed the previously treated 96-well microtiter plate, and 50 μL Tetracycline-free treatment medium (DMEM/F12 (1:1), 1× Pen/step (cat #: 30-002-CL, Mediatech, Inc), with 2% FBS, Tet-system approved (cat #: 631106, Clontech), and 1% DMSO was added back to each well. Another 50 μL of CellTiter-Glo reagent solution (Promega, G7573) was then added at room temperature and the contents mixed for 2 minutes on an orbital shaker to induce cell lysis. This was followed by incubation at room temperature for 10 minutes to stabilize the luminescent signal. The luminescence was recorded for 0.2 seconds per well on a Tecan multimode plate reader (Infinite M1000 pro). The luminescent signal from each well was normalized against that of untreated (DMSO) control wells. All results were reported percent viability (with controls being 100%).

| Compound | activity at 10 µM [1] | AD38 Viability Normalized Result (cmpd/DMSO %) at 10 μM (AD38 cells) | AD38 Viral Load (%) (VL with cmpd/VL in DMSO control) at 10 μM [1] |
| --- | --- | --- | --- |
| CC(NC(=O)c1ccc2c(c1)NC(=O)c1ccccc1S2)c1cncs1 (racemic) [compound 1432, 11-oxo-N-(1-(thiazol-5-yl)ethyl)-10, 11-dihydrodibenzo [b, f] [1, 4] thiazepine-8-carboxamide] | 21.8% | 101% | – |
| COC(=O)c1ccc(-c2ncc(CNC(=O)c3ccc4c(c3)NC(=O)c3ccccc3S4)s2)cc1 [1599-A, methyl 4-(5-((11-oxo-10, 11-dihydrodibenzo [b, f] [1, 4]thiazepine-8-carboxamido)methyl)thiazol-2-yl) benzoate] | 50.9% | 98% | – |
| COC(=O)c1ccc(-c2ncc(CNC(=O)c3ccc4c(c3)NC(=O)c3ccccc3O4)s2)cc1 [1612-A, methyl 4-(5-((11-oxo-10, 11-dihydrodibenzo [b, f] [1, 4]oxazepine-8-carboxamido)methyl)thiazol-2-yl) benzoate] | 12.4% | 101% | – |
| O=C(NCc1cnc(OCCOC2CCCCO2)s1)c1ccc2c(c1)NC(=O)c1ccccc1O2 (stereo not shown) [1613-A, 11-oxo-N-((2-(2-((tetrahydro-2H-pyran-2-yl)oxy)ethoxy)thiazol-5-yl)methyl)-10, 11-dihydrodibenzo [b, f] [1, 4] oxazepine-8-carboxamide] | 11.5% | 95% | – |
| O=C(NCc1cnc(-c2ccc([N+](=O)[O-])cc2)s1)c1ccc2c(c1)NC(=O)c1ccccc1S2(=O)=O [1645-A] | 0.3% | 98% | – |
| Nc1ccc(-c2ncc(CNC(=O)c3ccc4c(c3)NC(=O)c3ccccc3S4(=O)=O)s2)cc1 [1645-B, N-((2-(4-aminophenyl)thiazol-5-yl)methyl)-11-oxo-10, 11-dihydrodibenzo [b, f] [1, 4] thiazepine-8-carboxamide 5,5-dioxide] | 77.8% | 100% | – |
| N#Cc1ccc(-c2ncc(CNC(=O)c3ccc4c(c3)NC(=O)c3ccccc3S4(=O)=O)s2)cc1 [1654-A, N-((2-(4-cyanophenyl)thiazol-5-yl)methyl)-11-oxo-10, 11-dihydrodibenzo [b, f] [1, 4] thiazepine-8-carboxamide 5,5-dioxide] | 2.6% | 68% | – |
| COc1ncc(-c2ncc(CNC(=O)c3ccc4c(c3)NC(=O)c3ccccc3S4(=O)=O)s2)cn1 [1671-A, N-((2-(2-methoxypyrimidin-5-yl)thiazol-5-yl)methyl)-11-oxo-10, 11-dihydrodibenzo [b, f] [1, 4] thiazepine-8-carboxamide 5,5-dioxide] | 0.7% | 111% | – |
| N#Cc1cccc(-c2ncc(CNC(=O)c3ccc4c(c3)NC(=O)c3ccccc3S4(=O)=O)s2)c1 [1677-A, N-((2-(3-cyanophenyl)thiazol-5-yl)methyl)-11-oxo-10, 11-dihydrodibenzo [b, f] [1, 4] thiazepine-8-carboxamide 5,5-dioxide] | 2.3% | 103% | – |
| NC(=O)c1cccc(-c2ncc(CNC(=O)c3ccc4c(c3)NC(=O)c3ccccc3S4(=O)=O)s2)c1 [1677-B, N-((2-(3-carbamoylphenyl)thiazol-5-yl)methyl)-11-oxo-10, 11-dihydrodibenzo [b, f] [1, 4] thiazepine-8-carboxamide 5,5-dioxide] | 2.4% | 89% | – |
| COc1ncc(-c2ncc(CNC(=O)c3ccc4c(c3)NC(=O)c3ccccc3O4)s2)cn1 [1709-A, N-((2-(2-methoxypyrimidin-5-yl)thiazol-5-yl)methyl)-11-oxo-10, 11-dihydrodibenzo [b, f] [1, 4] oxazepine-8-carboxamide] | 29.5% | 106% | – |
| N#Cc1cccc(-c2ncc(CNC(=O)c3ccc4c(c3)NC(=O)c3ccccc3O4)s2)c1 [1714-A] | 49.2% | 106% | – |
| COc1ccc(-c2ncc(CNC(=O)c3ccc4c(c3)NC(=O)c3ccccc3O4)s2)cc1C [1736-A] | 14.1% | 97% | – |
| COc1c(C)cc(-c2ncc(CNC(=O)c3ccc4c(c3)NC(=O)c3ccccc3O4)s2)cc1C [1738-A] | 1.8% | 104% | – |
| N#Cc1ccc(-c2ncc(CNC(=O)c3ccc4c(c3)NC(=O)c3ccccc3O4)s2)cc1 [1770-A, N-((2-(4-cyanophenyl)thiazol-5-yl)methyl)-11-oxo-10, 11-dihydrodibenzo [b, f] [1, 4] oxazepine-8-carboxamide] | 29.8% | 100% | – |
| COc1ccc(-c2ncc(CNC(=O)c3ccc4c(c3)NC(=O)c3ccccc3S4(=O)=O)s2)cc1C [1804-A, N-((2-(4-methoxy-3-methylphenyl)thiazol-5-yl)methyl)-11-oxo-10, 11-dihydrodibenzo [b, f] [1, 4] thiazepine-8-carboxamide 5,5-dioxide] | 6.6% | 90% | – |
| COc1c(C)cc(-c2ncc(CNC(=O)c3ccc4c(c3)NC(=O)c3ccccc3S4(=O)=O)s2)cc1C [1806-A, N-((2-(4-methoxy-3,5-dimethylphenyl)thiazol-5-yl)methyl)-11-oxo-10, 11-dihydrodibenzo [b, f] [1, 4] thiazepine-8-carboxamide 5,5-dioxide] | 0.3% | 66% | – |
| COc1ccc(Cc2ncc(CNC(=O)c3ccc4c(c3)NC(=O)c3ccccc3S4(=O)=O)s2)cc1 [1823-A, N-((2-(4-methoxybenzyl)thiazol-5-yl)methyl)-11-oxo-10, 11-dihydrodibenzo [b, f] [1, 4] thiazepine-8-carboxamide 5,5-dioxide] | 5.8% | 92% | – |
| COc1ccc(Cc2ncc(CNC(=O)c3ccc4c(c3)NC(=O)c3ccccc3O4)s2)cc1 [1835-A, N-((2-(4-methoxybenzyl)thiazol-5-yl)methyl)-11-oxo-10, 11-dihydrodibenzo [b, f] [1, 4] oxazepine-8-carboxamide] | 0.3% | 89% | – |
| COc1ccc(-c2ncc(CNC(=O)c3ccc4c(c3)NC(=O)c3ccccc3S4(=O)=O)s2)nc1 [1879-A] | 2.5% | 121% | – |
| COc1ccnc(-c2ncc(CNC(=O)c3ccc4c(c3)NC(=O)c3ccccc3S4(=O)=O)s2)c1 [1880-A, N-((2-(4-methoxypyridin-2-yl)thiazol-5-yl)methyl)-11-oxo-10, 11-dihydrodibenzo [b, f] [1, 4] thiazepine-8-carboxamide 5,5-dioxide] | 0.7% | 124% | – |
| CC(C)(C)OC(=O)NC1CCN(Cc2ncc(CNC(=O)c3ccc4c(c3)NC(=O)c3ccccc3S4(=O)=O)s2)CC1 [1885-A] | 4.5% | 107% | – |
| COc1cc2c(cc1C(=O)NCc1cnc(-c3ccc(C#N)cc3)s1)NC(=O)c1ccccc1S2(=O)=O [1901-A, N-((2-(4-cyanophenyl)thiazol-5-yl)methyl)-7-methoxy-11-oxo-10, 11-dihydrodibenzo [b, f] [1, 4] thiazepine-8-carboxamide 5,5-dioxide] | 3% | 118% | – |
| N#Cc1ccc(-c2ncc(CNC(=O)c3cc4c(cc3O)S(=O)(=O)c3ccccc3C(=O)N4)s2)cc1 [1901-B, N-((2-(4-cyanophenyl)thiazol-5-yl)methyl)-7-hydroxy-11-oxo-10, 11-dihydrodibenzo [b, f] [1, 4] thiazepine-8-carboxamide 5,5-dioxide] | 69.4% | 108% | – |
| CC(C)(C)OC(=O)N1CC(COc2ccc(-c3ncc(CNC(=O)c4ccc5c(c4)NC(=O)c4ccccc4S5(=O)=O)s3)cc2)C1 [1995-A, tert-butyl 3-((4-(5-((5,5-dioxido-11-oxo-10, 11-dihydrodibenzo [b, f] [1, 4]thiazepine-8-carboxamido)methyl)thiazol-2-yl)phenoxy)methyl) azetidine-1-carboxylate] | – | 107% | 2.4% |
| O=C(NCc1cnc(-c2ccc(C#CCCO)cc2)s1)c1ccc2c(c1)NC(=O)c1ccccc1S2(=O)=O [11002-A, N-((2-(4-(4-hydroxybut-1-yn-1-yl)phenyl)thiazol-5-yl)methyl)-11-oxo-10, 11-dihydrodibenzo [b, f] [1, 4] thiazepine-8-carboxamide 5,5-dioxide] | 1% | 106% | – |
